In brackets after ≈: the same amount, converted by molar mass. Activity calls are given as the source filed them. No cut-off for these calls is given here.
Experiments:
Clostridium perfringens = test: Antimicrobial activity against Clostridium perfringens ISS 30543 by tube dilution method; assay type: functional
Salmonella typhimurium = test: Antimicrobial activity against Salmonella typhimurium Kh by tube dilution method; assay type: functional, Salmonella enterica subsp. enterica serovar Typhimurium; conditions: Salmonella enterica
[1] = system: Mycobacterium tuberculosis; test: Antimicrobial activity against Mycobacterium tuberculosis ATCC 9360 by tube dilution method; assay type: functional
[2] = system: Trichophyton mentagrophytes; test: Antimicrobial activity against Trichophyton mentagrophytes SKF 17410 by tube dilution method; assay type: functional
Shigella sonnei = test: Antimicrobial activity against Shigella sonnei ATCC 9290 by tube dilution method; assay type: functional
[3] = system: Mycoplasmoides gallisepticum; test: Antimicrobial activity against Mycoplasma gallisepticum H21 C.Z.B. by tube dilution method; assay type: functional
Escherichia coli [4] = test: Antimicrobial activity against Escherichia coli SKF 12140 by tube dilution method; assay type: functional
Staphylococcus aureus [5] = test: Antimicrobial activity against Staphylococcus aureus Tour by tube dilution method; assay type: functional
Streptococcus pyogenes = test: Antimicrobial activity against Streptococcus haemolyticus C 203 by tube dilution method; assay type: functional
Streptococcus pneumoniae = test: Antimicrobial activity against Diplococcus pneumoniae UC41 by tube dilution method; assay type: functional
Pseudomonas aeruginosa = test: Antimicrobial activity against Pseudomonas aeruginosa ATCC 10145 by tube dilution method; assay type: functional
Trichomonas vaginalis [6] = test: Trichomonastatic activity against Trichomonas vaginalis by tube dilution method; assay type: functional
Candida albicans = test: Antimicrobial activity against Candida albicans SKF 2270 by tube dilution method; assay type: functional
Klebsiella pneumoniae = test: Antimicrobial activity against Klebsiella pneumoniae I.S.M. by tube dilution method; assay type: functional
Escherichia coli [7] = test: Antimicrobial activity against Escherichia coli infected in mouse at 300 mg/kg, po; assay type: functional, organism-based; parameters: dose 300 mg/kg
Trichomonas vaginalis [8] = test: Trichomonacidal activity against Trichomonas vaginalis by tube dilution method; assay type: functional
Proteus vulgaris = test: Antimicrobial activity against Proteus vulgaris X19 H ATCC 881 by tube dilution method; assay type: functional
Staphylococcus aureus [9] = test: Antimicrobial activity against Staphylococcus aureus infected in mouse at 200 mg/kg, po; assay type: functional, organism-based; parameters: dose 200 mg/kg
[10] = Toxicity in po dosed mouse infected with Escherichia coli; assay type: organism-based; conditions: in vivo
Staphylococcus aureus [11] = test: Antimicrobial activity against Staphylococcus aureus infected in mouse at 200 mg/kg, sc; assay type: functional, organism-based; parameters: dose 200 mg/kg
[12] = Toxicity in sc dosed mouse infected with Escherichia coli; assay type: organism-based; conditions: in vivo
Trichomonas vaginalis [13] = test: Ratio of metronidazole ED50 to compound ED50 for Trichomonas vaginalis infected in sc dosed mouse; assay type: functional
Trichomonas vaginalis [14] = test: Antimicrobial activity against Trichomonas vaginalis infected in sc dosed mouse; assay type: functional
[15] = Toxicity in po dosed mouse infected with Trichomonas vaginalis; assay type: organism-based; conditions: in vivo
Escherichia coli [16] = test: Antimicrobial activity against Escherichia coli infected in mouse at 200 mg/kg, sc; assay type: functional, organism-based; parameters: dose 200 mg/kg

| SMILES | MIC (Clostridium perfringens) [µg/mL] | MIC (Salmonella typhimurium) [µg/mL] | MIC [1] [µg/mL] | MIC [2] [µg/mL] | MIC (Shigella sonnei) [µg/mL] | MIC [3] [µg/mL] | MIC (Escherichia coli [4]) [µg/mL] | MIC (Staphylococcus aureus [5]) [µg/mL] | MIC (Streptococcus pyogenes) [µg/mL] | MIC (Streptococcus pneumoniae) [µg/mL] | MIC (Pseudomonas aeruginosa) [µg/mL] | MIC (Trichomonas vaginalis [6]) [µg/mL] | MIC (Candida albicans) [µg/mL] | MIC (Klebsiella pneumoniae) [µg/mL] | MIC (Trichomonas vaginalis [8]) [µg/mL] | MIC (Proteus vulgaris) [µg/mL] | Ratio ED50 (Trichomonas vaginalis [13]) | LD50 [15] [mg/kg] | further results |
| --- | --- | --- | --- | --- | --- | --- | --- | --- | --- | --- | --- | --- | --- | --- | --- | --- | --- | --- | --- |
| Cn1c(/C=C/C=O)cnc1[N+](=O)[O-] | 20 (≈ 110 µM) | 5 (≈ 27.6 µM) | 50 (≈ 276 µM) | 10 (≈ 55.2 µM) | 20 (≈ 110 µM) | 50 (≈ 276 µM) | 5 (≈ 27.6 µM) | 20 (≈ 110 µM) | 10 (≈ 55.2 µM) | 5 (≈ 27.6 µM) | 100 (≈ 552 µM) | 20 (≈ 110 µM) | > 100 | 10 (≈ 55.2 µM) | 50 (≈ 276 µM) | 20 (≈ 110 µM) | – | – | Activity (Escherichia coli [7]): inactive |
| Cn1c(/C=C/C=[N+](/C)[O-])cnc1[N+](=O)[O-] | 5 (≈ 23.8 µM) | 20 (≈ 95.2 µM) | 100 (≈ 476 µM) | > 100 | 20 (≈ 95.2 µM) | 10 (≈ 47.6 µM) | 50 (≈ 238 µM) | 10 (≈ 47.6 µM) | 20 (≈ 95.2 µM) | 100 (≈ 476 µM) | > 100 | > 100 | > 100 | 20 (≈ 95.2 µM) | – | > 100 | – | – | Activity (Staphylococcus aureus [9]): Active; LD50 [10]: 700 mg/kg; Activity (Staphylococcus aureus [11]): Active; LD50 [12]: 700 mg/kg |
| Cc1cnc([N+](=O)[O-])n1CCOS(C)(=O)=O | 20 (≈ 80.2 µM) | 100 (≈ 401 µM) | > 100 | > 100 | 100 (≈ 401 µM) | > 100 | 100 (≈ 401 µM) | 100 (≈ 401 µM) | 100 (≈ 401 µM) | > 100 | > 100 | 50 (≈ 201 µM) | > 100 | > 100 | 100 (≈ 401 µM) | > 100 | 0.6 | 800 | ED50 (Trichomonas vaginalis [14]): 8.12 mg/kg |
| CCCC/C(=C\c1cnc([N+](=O)[O-])n1C)[N+](=O)[O-] | 5 (≈ 19.7 µM) | 50 (≈ 197 µM) | 2 (≈ 7.87 µM) | 1 (≈ 3.93 µM) | 50 (≈ 197 µM) | 5 (≈ 19.7 µM) | 10 (≈ 39.3 µM) | 2 (≈ 7.87 µM) | 5 (≈ 19.7 µM) | 2 (≈ 7.87 µM) | 100 (≈ 393 µM) | 10 (≈ 39.3 µM) | 20 (≈ 78.7 µM) | 100 (≈ 393 µM) | 50 (≈ 197 µM) | 50 (≈ 197 µM) | >2.9 | 500 | – |
| COC(=O)/C=C/c1cnc([N+](=O)[O-])n1C | > 100 | 100 (≈ 474 µM) | 50 (≈ 237 µM) | 100 (≈ 474 µM) | 100 (≈ 474 µM) | > 100 | 50 (≈ 237 µM) | > 100 | > 100 | > 100 | > 100 | 10 (≈ 47.4 µM) | > 100 | > 100 | 50 (≈ 237 µM) | > 100 | >2.8 | > 1000 | – |
| CCOC(=O)/C=C/c1cnc([N+](=O)[O-])n1C | 50 (≈ 222 µM) | > 100 | 50 (≈ 222 µM) | 100 (≈ 444 µM) | > 100 | 100 (≈ 444 µM) | 50 (≈ 222 µM) | > 100 | 100 (≈ 444 µM) | 100 (≈ 444 µM) | > 100 | 20 (≈ 88.8 µM) | > 100 | > 100 | 100 (≈ 444 µM) | > 100 | – | – | – |
| C=Cn1c(C)cnc1[N+](=O)[O-] | > 100 | > 100 | > 100 | > 100 | > 100 | > 100 | > 100 | > 100 | > 100 | > 100 | > 100 | 20 (≈ 131 µM) | > 100 | > 100 | 50 (≈ 326 µM) | > 100 | 0.6 | 75 | – |
| CC(/C=C/c1cnc([N+](=O)[O-])n1C)=N\NC(N)=S | 5 (≈ 18.6 µM) | > 50 | 10 (≈ 37.3 µM) | > 50 | > 50 | > 50 | > 50 | 10 (≈ 37.3 µM) | 20 (≈ 74.5 µM) | > 50 | > 50 | 50 (≈ 186 µM) | > 50 | > 50 | 100 (≈ 373 µM) | > 50 | – | – | – |
| CC(=O)/C=C/c1cnc([N+](=O)[O-])n1C | 5 (≈ 25.6 µM) | 50 (≈ 256 µM) | 20 (≈ 102 µM) | 100 (≈ 512 µM) | 50 (≈ 256 µM) | 50 (≈ 256 µM) | 20 (≈ 102 µM) | 50 (≈ 256 µM) | 100 (≈ 512 µM) | 100 (≈ 512 µM) | > 100 | 10 (≈ 51.2 µM) | > 100 | 100 (≈ 512 µM) | 50 (≈ 256 µM) | 100 (≈ 512 µM) | 1.1 | 800 | Activity (Escherichia coli [16]): inactive |
| Cc1ccc(S(=O)(=O)OCCn2c(C)cnc2[N+](=O)[O-])cc1 | 50 (≈ 154 µM) | > 100 | 100 (≈ 307 µM) | > 100 | > 100 | > 100 | > 100 | > 100 | > 100 | > 100 | > 100 | 50 (≈ 154 µM) | > 100 | > 100 | 100 (≈ 307 µM) | > 100 | >7 | > 1000 | – |
| Cc1cnc(/N=C/C=C/c2cnc([N+](=O)[O-])n2C)n1C | 10 (≈ 36.5 µM) | > 20 | > 20 | > 20 | > 20 | > 20 | > 20 | > 20 | > 20 | > 20 | > 20 | 50 (≈ 182 µM) | > 20 | > 20 | 100 (≈ 365 µM) | > 20 | – | – | – |
| Cc1ncc([N+](=O)[O-])n1CCO [METRONIDAZOLE] | – | – | – | – | – | – | – | – | – | – | – | 0.5 (≈ 2.92 µM) | – | – | 2 (≈ 11.7 µM) | – | – | – | ED50 (Trichomonas vaginalis [14]): 12.3 mg/kg |
| C=Cc1cnc([N+](=O)[O-])n1C | 0.5 (≈ 3.26 µM) | 5 (≈ 32.6 µM) | 20 (≈ 131 µM) | 50 (≈ 326 µM) | 20 (≈ 131 µM) | – | 10 (≈ 65.3 µM) | 50 (≈ 326 µM) | > 100 | > 100 | 20 (≈ 131 µM) | 1 (≈ 6.53 µM) | 100 (≈ 653 µM) | 10 (≈ 65.3 µM) | 1 (≈ 6.53 µM) | 100 (≈ 653 µM) | 3 | 480 | ED50 (Trichomonas vaginalis [14]): 14 mg/kg |

— ChEMBL document CHEMBL3244225, “Synthesis and biological activity of some vinyl-substituted 2-nitroimidazoles” (J Med Chem, 1977)
